Measured values: patent publication US10173971B2, “Picolinamides with fungicidal activity” (DOW AGROSCIENCES LLC, priority 2014, dated 2019)
Where two headings read alike, the source gives them in different places.

Assays:
[1] = tested on: Zymoseptoria tritici; assay: Fungicidal activity: leaf blotch of wheat (SEPTTR), wheat seedlings, booth sprayer to run-off or track spray; type: in vivo; conditions: for pest or weed control at 100 ppm: High-Volume Cereal Activity at 100 ppm; for pest or weed control at 121.5 g/ha: Low-Volume Cereal Activity at 121.5 g/H
[2] = tested on: Puccinia triticina; assay: Fungicidal activity: wheat brown rust (PUCCRT), wheat seedlings, booth sprayer to run-off or track spray; type: in vivo; conditions: for pest or weed control at 100 ppm: High-Volume Cereal Activity at 100 ppm; for pest or weed control at 121.5 g/ha: Low-Volume Cereal Activity at 121.5 g/H
[3] = tested on: Phakopsora pachyrhizi; assay: Fungicidal activity: Asian soybean rust (PHAKPA), soybean seedlings; conditions: 25 ppm, soybean plants (variety Williams 82); for Disease Control PHAKPA 1DP: 1 Day Protectant; for Disease Control PHAKPA 3DC: 3 Day Curative
[4] = 24 h, 1 Day Protectant, read-out: SEPTTR 1DP
[5] = 72 h, 3 Day Curative, read-out: SEPTTR 3DC
[6] = 24 h, 1 Day Protectant, read-out: PUCCRT 1DP
[7] = 72 h, 3 Day Curative, read-out: PUCCRT 3DC
[8] = 3DC (Day Curative), read-out: PUCCRT 3DC

SMILES | pest or weed control at 100 ppm [1, 4] | pest or weed control at 121.5 g/ha [1, 4] | pest or weed control at 121.5 g/ha [1, 5] | pest or weed control at 100 ppm ([1]; 3DC (Day Curative), read-out: SEPTTR 3DC) | pest or weed control at 100 ppm [2, 6] | pest or weed control at 121.5 g/ha [2, 6] | pest or weed control at 121.5 g/ha [2, 7] | pest or weed control at 100 ppm [2, 8] | Disease Control PHAKPA 1DP [3] | Disease Control PHAKPA 3DC [3]
CCCO[C@H](CC)[C@@H](Cc1ccccc1)[C@H](C)OC(=O)[C@H](C)NC(=O)c1nccc(OC)c1OCOC(C)=O [compound 169] | 80 to 100% | 80 to 100% | 80 to 100% | 80 to 100% | 80 to 100% | 80 to 100% | 80 to 100% | 80 to 100% | A (80-100) | B (More than 0-Less than 80)
COc1ccnc(C(=O)N[C@@H](C)C(=O)O[C@@H](C)[C@@H](COCc2ccccc2)Cc2ccccc2)c1OCOC(C)=O [compound 240] |  | 0 to 80% | 80 to 100% |  |  | 80 to 100% | 80 to 100% |  | A (80-100) | B (More than 0-Less than 80)
COc1ccnc(C(=O)N[C@@H](C)C(=O)O[C@@H](C)[C@H](Cc2ccccc2)C(C)(C)OCc2ccccc2)c1OCOC(C)=O [compound 242] |  | 80 to 100% | 80 to 100% |  |  | 80 to 100% | 80 to 100% |  | B (More than 0-Less than 80) | 
COc1cccc(CC(Cc2cccc(OC)c2)[C@H](C)OC(=O)[C@H](C)NC(=O)c2nccc(OC)c2OC(C)=O)c1 [compound 270] |  | 0 to 80% |  |  |  | 80 to 100% | 0 to 80% |  |  | 
CC[C@H](NC(=O)c1nccc(OC)c1OC(C)=O)C(=O)O[C@@H](C)C(Cc1cccc(OC)c1)Cc1cccc(OC)c1 [compound 271] |  | 0 to 80% |  |  |  | 0 to 80% |  |  |  | 
COc1ccc(CC(Cc2ccc(OC)cc2)[C@H](C)OC(=O)[C@H](C)NC(=O)c2nccc(OC)c2OC(C)=O)cc1 [compound 272] |  | 80 to 100% |  |  |  | 0 to 80% | 0 to 80% |  |  | 
CC[C@H](NC(=O)c1nccc(OC)c1OC(C)=O)C(=O)O[C@@H](C)C(Cc1ccc(OC)cc1)Cc1cccc(OC)c1 (some centres unmarked) [compound 273] |  | 80 to 100% | 0 to 80% |  |  | 0 to 80% | 0 to 80% |  |  | 
COc1cccc(CC(Cc2cccc(OC)c2)[C@H](C)OC(=O)[C@H](C)NC(=O)c2nccc(OC)c2OCOC(C)=O)c1 [compound 274] |  | 0 to 80% |  |  |  | 80 to 100% | 0 to 80% |  |  | 
CC[C@H](NC(=O)c1nccc(OC)c1OCOC(C)=O)C(=O)O[C@@H](C)C(Cc1cccc(OC)c1)Cc1cccc(OC)c1 [compound 275] |  | 0 to 80% |  |  |  | 80 to 100% | 0 to 80% |  |  | 
COc1ccc(CC(Cc2ccc(OC)cc2)[C@H](C)OC(=O)[C@H](C)NC(=O)c2nccc(OC)c2OCOC(C)=O)cc1 [compound 276] |  | 80 to 100% | 0 to 80% |  |  | 80 to 100% |  |  |  | 
CC[C@H](NC(=O)c1nccc(OC)c1OCOC(C)=O)C(=O)O[C@@H](C)C(Cc1ccc(OC)cc1)Cc1ccc(OC)cc1 [compound 277] |  | 80 to 100% |  |  |  | 80 to 100% | 0 to 80% |  |  | 
COc1ccc(C[C@@H]([C@H](C)OC(=O)[C@H](C)NC(=O)c2nccc(OC)c2OCOC(C)=O)C(C)(C)OCC2CC2)cc1 [compound 278] |  | 0 to 80% | 0 to 80% |  |  | 80 to 100% | 0 to 80% |  |  | 
COc1ccc(C[C@@H]([C@H](C)OC(=O)[C@H](C)NC(=O)c2nccc(OC)c2OCOC(C)=O)C(C)(C)Oc2ccc(F)cc2F)cc1 [compound 279] |  | 0 to 80% | 80 to 100% |  |  | 80 to 100% | 0 to 80% |  |  | 
COc1ccc(C[C@H](COCC2CC2)[C@H](C)OC(=O)[C@H](C)NC(=O)c2nccc(OC)c2OCOC(C)=O)cc1 [compound 280] |  | 0 to 80% | 80 to 100% |  |  | 80 to 100% | 80 to 100% |  |  | 
COc1ccc(C[C@H](COCC2CC2)[C@H](C)OC(=O)[C@H](C)NC(=O)c2nccc(OC)c2OCOC(C)=O)cc1Cc1ccccc1 [compound 281] |  | 0 to 80% | 80 to 100% |  |  | 80 to 100% | 0 to 80% |  |  | 
COc1ccc(C[C@H](COc2ccc(F)cc2F)[C@H](C)OC(=O)[C@H](C)NC(=O)c2nccc(OC)c2OCOC(C)=O)cc1 [compound 282] |  | 0 to 80% | 0 to 80% |  |  | 80 to 100% |  |  |  | 
CC[C@@H](c1ccccc1)[C@H](C)OC(=O)[C@H](C)NC(=O)c1nccc(OC)c1OC(C)=O [compound 283] |  | 0 to 80% | 80 to 100% |  |  | 80 to 100% | 80 to 100% |  |  | 
CC[C@H](Cc1ccc(C(F)(F)F)cc1)[C@@H](Cc1ccc(F)cc1)[C@H](C)OC(=O)[C@H](C)NC(=O)c1nccc(OC)c1O [compound 284] | 0 to 80% |  |  |  | 80 to 100% |  |  | 80 to 100% |  | 
